MIC data for five compounds are collected here from DBAASP.

Molecules are shown by their SMILES. Values after ≈ are worked out from the molar mass of the structure shown.

Experiment in all cases: ≥ marks a high value that may be exact or a test limit, other limits are often not marked, values filed in µg/mL are converted to µM
Test [1] deals with Pseudomonas aeruginosa ATCC 27853.
Test [2] concerns Pseudomonas aeruginosa 4007.
For test [3], the system named is Candida albicans KCTC 7270.
In test [4] the test system is Trichosporon beigelii KCTC 7707.
The subject of test [5] is Escherichia coli CCARM 1238.
The subject of test [6] is Listeria monocytogenes KCTC 3710.
Test [7] has as its system Staphylococcus aureus CCARM 3090.
Test [8] concerns Escherichia coli CCARM 1229.
Test [9] relates to Pseudomonas aeruginosa 4891.
The test system of test [10] is Escherichia coli ATCC 25922.
The test system of test [11] is Salmonella typhimurium KCTC 1926.
Test [12] concerns Staphylococcus aureus CCARM 3518.
Test [13] deals with Staphylococcus aureus ATCC 25923.
In test [14] the test system is Bacillus subtilis KCTC 1998.
Test [15] deals with Candida parapsilosis.
The subject of test [16] is Candida albicans.
For test [17], the system named is Candida krusei.
In test [18] the test system is Candida albicans ATCC 10231.
For test [19], the system named is Candida glabrata.
In test [20] the test system is Candida tropicalis.
In test [21] the test system is Aeromonas salmonicida 99-1.
For test [22], the system named is Escherichia coli DC2.
In test [23] the test system is Candida albicans C627.
Test [24] deals with Aeromonas salmonicida 97-4.
The subject of test [25] is Escherichia coli UB1005.
The subject of test [26] is Salmonella enterica serovar typhimurium MS7953s.
The test system of test [27] is Staphylococcus epidermidis C621.
Test [28] relates to Pseudomonas aeruginosa Z61.
Test [29] has as its system Escherichia coli CGSC 4908.
For test [30], the system named is Salmonella enterica subsp. enterica serovar Typhimurium ATCC 14028s.
Test [31] has as its system Pseudomonas aeruginosa K799.
Test [32] has as its system Staphylococcus aureus C623.

As usually defined, the MIC is the lowest concentration found to suppress growth. The low end stands for greater potency, the high end for weaker potency. For `CC[C@H](C)[C@H](NC(=O)CNC(=O)[C@H](CCC(N)=O)NC(=O)[C@H](Cc1ccccc1)NC(=O)[C@@H](NC(=O)[C@H](CCCCN)NC(=O)[C@H](CCCCN)NC(=O)[C@H](CC(C)C)NC(=O)[C@H](C)NC(=O)[C@H](CC(N)=O)NC(=O)[C@H](CC(C)C)NC(=O)[C@@H](N)Cc1c[nH]c2ccccc12)C(C)C)C(=O)N[C@@H](Cc1cnc[nH]1)C(=O)N[C@@H](CCC(=O)O)C(=O)N[C@@H](C)C(=O)N[C@H](C(=O)N[C@@H](CCCCN)C(=O)N[C@@H](CC(C)C)C(=O)N[C@H](C(=O)N[C@@H](CC(N)=O)C(=O)N[C@@H](CC(N)=O)C(=O)N[C@@H](Cc1cnc[nH]1)C(=O)N[C@H](C(=O)N[C@@H](CCC(N)=O)C(N)=O)C(C)C)[C@@H](C)CC)[C@@H](C)CC` [WLNALKKVFQGIHEAIKLINNHVQ], the minimum inhibitory concentration (MIC) in test [1] was 16 µM (≈ 45 µg/mL); in [2], 16 µM (≈ 45 µg/mL); in [3] it was at least 64 µM; in test [4], at least 64 µM; in test [5], 16 µM (≈ 45 µg/mL); in test [6] it was at least 32 µM. Also, the MIC was at least 32 µM in [7]; 16 µM (≈ 45 µg/mL) in test [8]; 16 µM (≈ 45 µg/mL) in test [9]; 16 µM (≈ 45 µg/mL) in [10]; 16 µM (≈ 45 µg/mL) in test [11]; at least 32 µM in test [12]. The figures for the minimal inhibitory concentration (MIC) in test [13] and in [14] were 32 µM (≈ 90 µg/mL) and at least 32 µM, respectively.
With `CC[C@H](C)[C@H](NC(=O)[C@@H](NC(=O)CNC(=O)[C@H](CCCN=C(N)N)NC(=O)[C@H](CCC(N)=O)NC(=O)[C@H](Cc1cnc[nH]1)NC(=O)[C@H](CC(C)C)NC(=O)[C@H](CCCN=C(N)N)NC(=O)[C@@H](NC(=O)[C@H](CC(C)C)NC(=O)[C@@H](NC(=O)[C@@H](NC(=O)[C@H](CC(C)C)NC(=O)[C@H](CC(C)C)NC(=O)[C@@H](N)C(C)C)C(C)C)[C@@H](C)O)[C@@H](C)O)C(C)C)C(=O)N[C@@H](Cc1ccc(O)cc1)C(=O)N[C@@H](CCCN=C(N)N)C(=O)N[C@@H](CCCCN)C(=O)N[C@@H](Cc1c[nH]c2ccccc12)C(=O)N[C@@H](CCCN=C(N)N)C(=O)N[C@@H](Cc1cnc[nH]1)C(=O)N[C@@H](Cc1ccccc1)C(=O)N[C@@H](CO)C(=O)NCC(=O)N[C@@H](CCCN=C(N)N)C(=O)N[C@@H](CCCCN)C(=O)N[C@@H](Cc1ccc(O)cc1)C(=O)N[C@@H](CCCN=C(N)N)C(=O)O` [VLLVTLTRLHQRGVIYRKWRHFSGRKYR], the MIC in test [15] is 25 µM (≈ 88.5 µg/mL); in test [16], 25 µM (≈ 88.5 µg/mL); in test [17], 25 µM (≈ 88.5 µg/mL); in test [18] it was 25 µM (≈ 88.5 µg/mL); in test [19] it was at least 50 µM; in test [20], 12.5 µM (≈ 44.3 µg/mL).
As for `CC(=O)[C@H](CC(C)C)NC(=O)[C@H](Cc1ccc(O)cc1)NC(=O)[C@H](Cc1cnc[nH]1)NC(=O)[C@H](CC(=O)O)NC(=O)[C@@H](NC(=O)[C@H](C)NC(=O)[C@H](CC(C)C)NC(=O)CNC(=O)CNC(=O)[C@@H](NC(=O)[C@@H](NC(=O)[C@H](CCCCN)NC(=O)CNC(=O)[C@@H](NC(=O)[C@H](CCCCN)NC(=O)[C@H](CCCCN)NC(=O)[C@H](C)NC(=O)[C@H](CCCNC(=N)N)NC(=O)[C@H](CC(N)=O)NC(=O)[C@H](Cc1ccccc1)NC(=O)[C@H](Cc1c[nH]c2ccccc12)NC(=O)[C@H](CCCCN)NC(=O)[C@H](CCCCN)NC(=O)[C@H](Cc1c[nH]c2ccccc12)NC(=O)CN)C(C)C)[C@@H](C)O)C(C)C)C(C)C` [GWKKWFNRAKKVGKTVGGLAVDHYL], the minimal inhibitory concentration (MIC) stood at 0.7 µM (≈ 2 µg/mL) in test [21]; 0.7 µM (≈ 2 µg/mL) in test [22]; 1.4 µM (≈ 4 µg/mL) in test [23]; 0.7 µM (≈ 2 µg/mL) in [24]; 2.8 µM (≈ 7.99 µg/mL) in test [25]; 0.7 µM (≈ 2 µg/mL) in test [26]. For the same compound, the MIC in test [27] amounted to 2.8 µM (≈ 7.99 µg/mL); in [28], 0.35 µM (≈ 0.999 µg/mL); in [29] it was 0.7 µM (≈ 2 µg/mL); in [30], 2.8 µM (≈ 7.99 µg/mL); in [31], 1.4 µM (≈ 4 µg/mL); in test [32] it was 5.6 µM (≈ 16 µg/mL).
For `CC(C)C[C@H](NC(=O)[C@H](Cc1ccc(O)cc1)NC(=O)[C@H](C)NC(=O)[C@@H](NC(=O)[C@H](CC(C)C)NC(=O)[C@H](C)NC(=O)[C@H](C)NC(=O)[C@H](CCCCN)NC(=O)CNC(=O)[C@@H](NC(=O)[C@H](Cc1cnc[nH]1)NC(=O)[C@H](CCCCN)NC(=O)CNC(=O)[C@@H](NC(=O)[C@H](Cc1cnc[nH]1)NC(=O)[C@@H](NC(=O)[C@H](C)NC(=O)[C@H](CCCCN)NC(=O)[C@H](CCCCN)NC(=O)[C@H](Cc1ccccc1)NC(=O)[C@H](Cc1c[nH]c2ccccc12)NC(=O)[C@H](CCCCN)NC(=O)CNC(=O)[C@H](Cc1c[nH]c2ccccc12)NC(=O)[C@@H](N)CCCN=C(N)N)[C@@H](C)O)C(C)C)C(C)C)[C@@H](C)O)C(N)=O` [RWGKWFKKATHVGKHVGKAALTAYL], the minimum inhibitory concentration (MIC) in [21] was determined as 1.4 µM (≈ 4 µg/mL); in [22] it was 1.4 µM (≈ 4 µg/mL); in [23], 5.61 µM (≈ 16 µg/mL); in test [24], 0.701 µM (≈ 2 µg/mL); in test [25], 1.4 µM (≈ 4 µg/mL); in test [26], 0.701 µM (≈ 2 µg/mL). For the same compound, the minimum inhibitory concentration (MIC) was found to be 22.4 µM (≈ 64 µg/mL) in test [27]; 0.701 µM (≈ 2 µg/mL) in test [28]; 1.4 µM (≈ 4 µg/mL) in test [29]; 2.8 µM (≈ 8 µg/mL) in test [30]; 1.4 µM (≈ 4 µg/mL) in test [31]; 22.4 µM (≈ 64 µg/mL) in [32].
`CC[C@H](C)[C@H](NC(=O)CNC(=O)[C@H](CCC(N)=O)NC(=O)[C@H](CO)NC(=O)[C@@H](NC(=O)[C@H](CCCCN)NC(=O)[C@H](CCCCN)NC(=O)[C@H](CC(C)C)NC(=O)[C@H](C)NC(=O)[C@H](CC(N)=O)NC(=O)[C@H](CC(C)C)NC(=O)CN)C(C)C)C(=O)N[C@@H](Cc1cnc[nH]1)C(=O)N[C@@H](CCC(=O)O)C(=O)N[C@@H](C)C(=O)N[C@H](C(=O)N[C@@H](CCCCN)C(=O)N[C@@H](CC(C)C)C(=O)N[C@H](C(=O)N[C@@H](CC(N)=O)C(=O)N[C@@H](CC(N)=O)C(=O)N[C@@H](Cc1cnc[nH]1)C(=O)N[C@H](C(=O)N[C@@H](CCC(N)=O)C(N)=O)C(C)C)[C@@H](C)CC)[C@@H](C)CC` [GLNALKKVSQGIHEAIKLINNHVQ]: the minimum inhibitory concentration (MIC) in [1] was 16 µM (≈ 42 µg/mL); in test [2] it was at least 64 µM; in [3], at least 64 µM; in [4] it was at least 64 µM; in test [5], at least 32 µM; in test [6] it was at least 32 µM. The minimal inhibitory concentration (MIC) in [7] is at least 64 µM; in [8] it was at least 32 µM; in [9] it was at least 64 µM; in [10], 16 µM (≈ 42 µg/mL); in test [11], 16 µM (≈ 42 µg/mL); in test [12], at least 64 µM. Moreover, the minimal inhibitory concentration (MIC) in test [13] was 32 µM (≈ 84 µg/mL); in test [14], at least 32 µM.
